Biological target: Adenosylhomocysteinase (Homo sapiens) (UniProt P23526)
Conditions: Bos taurus
Description: NAD+ content of the enzyme tetramer was measured by HPLC on a C 18 reverse-phase column

Sequence of Adenosylhomocysteinase (Homo sapiens) (P23526 2-432 limits assumed): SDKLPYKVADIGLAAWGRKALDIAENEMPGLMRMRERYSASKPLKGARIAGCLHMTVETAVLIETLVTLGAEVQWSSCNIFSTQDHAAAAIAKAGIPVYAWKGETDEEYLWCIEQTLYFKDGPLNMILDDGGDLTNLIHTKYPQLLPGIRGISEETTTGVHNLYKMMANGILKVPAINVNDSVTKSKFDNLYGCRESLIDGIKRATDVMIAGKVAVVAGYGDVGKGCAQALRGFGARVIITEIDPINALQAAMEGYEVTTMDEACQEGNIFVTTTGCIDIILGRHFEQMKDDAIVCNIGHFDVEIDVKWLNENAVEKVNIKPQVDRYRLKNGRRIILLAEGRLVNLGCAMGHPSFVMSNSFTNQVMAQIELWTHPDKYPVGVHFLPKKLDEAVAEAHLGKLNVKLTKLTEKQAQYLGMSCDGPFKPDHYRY

Row | Structure (SMILES) | NAD content (M (M of enzyme)-1)
1 | Nc1ncnc2c1ncn2[C@@H]1C=C[C@@H](O)[C@H]1O | 0.19
2 | Nc1ncnc2c1ncn2[C@@H]1C=C(CO)[C@@H](O)[C@H]1O | 0

Reference: ChEMBL document CHEMBL1124048, “9-(trans-2',trans-3'-dihydroxycyclopent-4'-enyl) derivatives of adenine and 3-deazaadenine: potent inhibitors of bovine liver S-adenosylhomocysteine hydrolase” (J Med Chem, 1988)
